{
  "source": "patent US4282236A",
  "about": "“β-Lactam antibacterial agents, their use in pharmaceutical compositions, and intermediates” (Beecham Group Limited, priority 1979, dated 1981)",
  "format_in_all_cases": "cell-based",
  "key": {"Proteus mirabilis C977 [1]": {"system": "Proteus mirabilis C977", "assay": "MIC, microtitre using nutrient broth", "conditions": "read-out: minimum inhibitory concentration (MIC)", "description": "(§1) The penem ester (21) (30 mg) was dissolved in a mixture of dioxane (4 ml) and water (1 ml) and hydrogenated over 5% palladium on charcoal catalyst (45 mg) for one hour. A further amount of catalyst (30 mg) was added and the hydrogenation was continued for a further one and a half hours. A 1% solution of sodium bicarbonate (0.6 ml) was added and the mixture filtered through Kieselguhr. The mixture was evaporated to low volume, water (10 ml) was added, and the aqueous solution washed with a little ethyl acetate. Evaporation of the aqueous phase afforded the sodium salt (22) (17 mg) as an amorphous solid. λmax. (EtOH) 364 n.m.\n(§2) 2. Microtitre using nutrient\n(§3) lution for G.div.ve bacteria or\n(§4) broth a 10^- 4 dilution for G-ve\n(§5) Minimum Inhibitory Concentrations are expressed in microgrammes per ml."}, "Escherichia coli 0111 [2]": {"system": "Escherichia coli 0111", "assay": "MIC, microtitre using nutrient broth", "conditions": "read-out: minimum inhibitory concentration (MIC)", "description": "as §1, §2, §3, §4, §5"}, "[3]": {"system": "Staphylococcus aureus Oxford", "assay": "MIC, microtitre using nutrient broth", "conditions": "read-out: minimum inhibitory concentration (MIC)", "description": "as §1, §2, §3, §4, §5"}, "[4]": {"system": "Staphylococcus aureus Russell", "assay": "MIC, microtitre using nutrient broth", "conditions": "read-out: minimum inhibitory concentration (MIC)", "description": "as §1, §2, §3, §4, §5"}, "Klebsiella aerogenes A [5]": {"system": "Klebsiella aerogenes A", "assay": "MIC, microtitre using nutrient broth", "conditions": "read-out: minimum inhibitory concentration (MIC)", "description": "as §1, §2, §3, §4, §5"}, "Escherichia coli JT 39 [6]": {"system": "Escherichia coli JT 39", "assay": "MIC, microtitre using nutrient broth", "conditions": "JT39, read-out: minimum inhibitory concentration (MIC)", "description": "as §1, §2, §3, §4, §5"}, "[7]": {"system": "Salmonella typhimurium CT10", "assay": "MIC, microtitre using nutrient broth", "conditions": "Salmonella enterica, read-out: minimum inhibitory concentration (MIC)", "description": "as §1, §2, §3, §4, §5"}, "Pseudomonas aeruginosa A [8]": {"system": "Pseudomonas aeruginosa A", "assay": "MIC, microtitre using nutrient broth", "conditions": "read-out: minimum inhibitory concentration (MIC)", "description": "as §1, §2, §3, §4, §5"}, "[9]": {"system": "Streptococcus pyogenes CN10", "assay": "MIC, DST agar + 10% horse blood", "conditions": "read-out: minimum inhibitory concentration (MIC)", "description": "as §1\n(§6) 1. DST agar + 10% horse blood\nas §3, §5"}, "Proteus morganii I580": {"system": "Proteus morganii I580", "assay": "MIC, DST agar + 10% horse blood", "conditions": "Morganella morganii, read-out: minimum inhibitory concentration (MIC)", "description": "as §1, §6, §3, §5"}, "Proteus mirabilis C977 [10]": {"system": "Proteus mirabilis C977", "assay": "MIC, DST agar + 10% horse blood", "conditions": "read-out: minimum inhibitory concentration (MIC)", "description": "as §1, §6, §3, §5"}, "Serratia marcescens US20": {"system": "Serratia marcescens US20", "assay": "MIC, DST agar + 10% horse blood", "conditions": "read-out: minimum inhibitory concentration (MIC)", "description": "as §1, §6, §3, §5"}, "Escherichia coli 0111 [11]": {"system": "Escherichia coli 0111", "assay": "MIC, DST agar + 10% horse blood", "conditions": "read-out: minimum inhibitory concentration (MIC)", "description": "as §1, §6, §3, §5"}, "Enterobacter cloacae N1": {"system": "Enterobacter cloacae N1", "assay": "MIC, DST agar + 10% horse blood", "conditions": "read-out: minimum inhibitory concentration (MIC)", "description": "as §1, §6, §3, §5"}, "[12]": {"system": "Streptococcus pneumoniae CN33", "assay": "MIC, DST agar + 10% horse blood", "conditions": "read-out: minimum inhibitory concentration (MIC)", "description": "as §1, §6, §3, §5"}, "[13]": {"system": "Staphylococcus aureus Oxford", "assay": "MIC, DST agar + 10% horse blood", "conditions": "read-out: minimum inhibitory concentration (MIC)", "description": "as §1, §6, §3, §5"}, "Citrobacter freundii E8": {"system": "Citrobacter freundii E8", "assay": "MIC, DST agar + 10% horse blood", "conditions": "read-out: minimum inhibitory concentration (MIC)", "description": "as §1, §6, §3, §5"}, "[14]": {"system": "Staphylococcus aureus 1517", "assay": "MIC, DST agar + 10% horse blood", "conditions": "read-out: minimum inhibitory concentration (MIC)", "description": "as §1, §6, §3, §5"}, "[15]": {"system": "Staphylococcus aureus Russell", "assay": "MIC, DST agar + 10% horse blood", "conditions": "read-out: minimum inhibitory concentration (MIC)", "description": "as §1, §6, §3, §5"}, "Bacillus subtilis A": {"system": "Bacillus subtilis A", "assay": "MIC, DST agar + 10% horse blood", "conditions": "read-out: minimum inhibitory concentration (MIC)", "description": "as §1, §6, §3, §5"}, "Klebsiella aerogenes A [16]": {"system": "Klebsiella aerogenes A", "assay": "MIC, DST agar + 10% horse blood", "conditions": "read-out: minimum inhibitory concentration (MIC)", "description": "as §1, §6, §3, §5"}, "Proteus rettgeri WM16": {"system": "Proteus rettgeri WM16", "assay": "MIC, DST agar + 10% horse blood", "conditions": "Providencia rettgeri, read-out: minimum inhibitory concentration (MIC)", "description": "as §1, §6, §3, §5"}, "Escherichia coli JT 39 [17]": {"system": "Escherichia coli JT 39", "assay": "MIC, DST agar + 10% horse blood", "conditions": "JT39, read-out: minimum inhibitory concentration (MIC)", "description": "as §1, §6, §3, §5"}, "[18]": {"system": "Salmonella typhimurium CT10", "assay": "MIC, DST agar + 10% horse blood", "conditions": "Salmonella enterica, read-out: minimum inhibitory concentration (MIC)", "description": "as §1, §6, §3, §5"}, "Pseudomonas aeruginosa A [19]": {"system": "Pseudomonas aeruginosa A", "assay": "MIC, DST agar + 10% horse blood", "conditions": "read-out: minimum inhibitory concentration (MIC)", "description": "as §1, §6, §3, §5"}, "Shigella sonnei MB 11967": {"system": "Shigella sonnei MB 11967", "assay": "MIC, DST agar + 10% horse blood", "conditions": "MB11967, read-out: minimum inhibitory concentration (MIC)", "description": "as §1, §6, §3, §5"}, "Proteus vulgaris W091": {"system": "Proteus vulgaris W091", "assay": "MIC, DST agar + 10% horse blood", "conditions": "read-out: minimum inhibitory concentration (MIC)", "description": "as §1, §6, §3, §5"}, "E. coli ESS": {"system": "E. coli ESS", "assay": "MIC, DST agar + 10% horse blood", "conditions": "Escherichia coli, read-out: minimum inhibitory concentration (MIC)", "description": "as §1, §6, §3, §5"}},
  "data": [
    {"smiles": "COC(=O)/C=C/C1=C(C(=O)O)N2C(=O)C[C@H]2S1", "note": "[compound 22, Sodium 2-(trans-2-Carbomethoxy-vinyl) penem-3-carboxylate]", "values": [
      {"measurement": "MIC", "setting": "Proteus mirabilis C977 [1]", "value": 125, "unit": "µg/mL"},
      {"measurement": "MIC", "setting": "Escherichia coli 0111 [2]", "value": 62, "unit": "µg/mL"},
      {"measurement": "MIC", "setting": "[3]", "value": 8, "unit": "µg/mL"},
      {"measurement": "MIC", "setting": "[4]", "value": 16, "unit": "µg/mL"},
      {"measurement": "MIC", "setting": "Klebsiella aerogenes A [5]", "value": 31, "unit": "µg/mL"},
      {"measurement": "MIC", "setting": "Escherichia coli JT 39 [6]", "value": 250, "unit": "µg/mL"},
      {"measurement": "MIC", "setting": "[7]", "value": 125, "unit": "µg/mL"},
      {"measurement": "MIC", "setting": "Pseudomonas aeruginosa A [8]", "value": "> 500", "unit": "µg/mL"},
      {"measurement": "MIC", "setting": "[9]", "value": 2.5, "unit": "µg/mL"},
      {"measurement": "MIC", "setting": "Proteus morganii I580", "value": 50, "unit": "µg/mL"},
      {"measurement": "MIC", "setting": "Proteus mirabilis C977 [10]", "value": 25, "unit": "µg/mL"},
      {"measurement": "MIC", "setting": "Serratia marcescens US20", "value": 50, "unit": "µg/mL"},
      {"measurement": "MIC", "setting": "Escherichia coli 0111 [11]", "value": 25, "unit": "µg/mL"},
      {"measurement": "MIC", "setting": "Enterobacter cloacae N1", "value": 50, "unit": "µg/mL"},
      {"measurement": "MIC", "setting": "[12]", "value": 0.5, "unit": "µg/mL"},
      {"measurement": "MIC", "setting": "[13]", "value": 5, "unit": "µg/mL"},
      {"measurement": "MIC", "setting": "Citrobacter freundii E8", "value": 25, "unit": "µg/mL"},
      {"measurement": "MIC", "setting": "[14]", "value": 50, "unit": "µg/mL"},
      {"measurement": "MIC", "setting": "[15]", "value": 10, "unit": "µg/mL"},
      {"measurement": "MIC", "setting": "Bacillus subtilis A", "value": 5, "unit": "µg/mL"},
      {"measurement": "MIC", "setting": "Klebsiella aerogenes A [16]", "value": 25, "unit": "µg/mL"},
      {"measurement": "MIC", "setting": "Proteus rettgeri WM16", "value": 50, "unit": "µg/mL"},
      {"measurement": "MIC", "setting": "Escherichia coli JT 39 [17]", "value": 100, "unit": "µg/mL"},
      {"measurement": "MIC", "setting": "[18]", "value": 50, "unit": "µg/mL"},
      {"measurement": "MIC", "setting": "Pseudomonas aeruginosa A [19]", "value": "> 100", "unit": "µg/mL"},
      {"measurement": "MIC", "setting": "Shigella sonnei MB 11967", "value": 100, "unit": "µg/mL"},
      {"measurement": "MIC", "setting": "Proteus vulgaris W091", "value": 50, "unit": "µg/mL"},
      {"measurement": "MIC", "setting": "E. coli ESS", "value": 25, "unit": "µg/mL"}
    ]}
  ]
}
